Square brackets hold non-standard residues; d marks the D form. Peptide text beside a SMILES is read from it. pY = N[C@@H](Cc1ccc(OP(=O)(O)O)cc1)C(=O)O
Legend:
Csk L-SH2 disulfide bond = assay: NMR-monitored reduction of oxidized SH2 by DTT; assay type: physicochemical, human; settings: 10 mmol/L DTT, pH 7.5, NMR
Excerpt: During purification of the Csk L-SH2 domain, 50 mmol/L DTT was used to elute the protein from the chitin resin. The L-SH2 was used in reduced form, given that DTT was used to cleave L-SH2 from its intein fusion partner. Following elution of the protein from the ion exchange column, the L-SH2 became a mixture of the reduced and oxidized forms. The fully oxidized form was obtained by exposing the protein to air for several days.
Fig. 3 Comparison of the oxidized and reduced form of SH2. A Comparison of ^1H–^15N HSQC of oxidized (red) and reduced (green) SH2. B Combined chemical shift change of oxidized and reduced form SH2. The difference was calculated as ∆δ tot = [(∆δ H)^2 + (0.154∆δ N)^2]^1/2. […]
All NMR experiments were performed at 298 K on 800 MHz spectrometers equipped with triple-resonance cryoprobes. […] The combined change in chemical shift of a particular residue upon ligation with the kinase domain was calculated as ∆δ = [(∆δ H)^2 + (0.154∆δ N)^2]^1/2, where ∆δ H and ∆δ N correspond to the changes in amide proton and nitrogen chemical shift, respectively. The weight factor for ^1H and ^15N is determined from the ratio of the average variances of the amide nitrogen and proton chemical shifts observed for the 20 common amino acid residues in proteins deposited in the BioMagResBank (Mulder et al. [1999]). […]

full-length Csk = settings: ref Kemble and Sun [2009]; cited from earlier work
Excerpt: Disulfide bonds are mostly found in secretory proteins and in extracellular domains of membrane proteins. Cytosolic proteins, which contain cysteine residues that are in close proximity to each other, may function as oxidation sensors; when the reductive potential of the cell fails, they oxidize and trigger cellular response mechanisms (Sevier and Kaiser [2002]). Mills et al. studied the unique disulfide bond of Csk SH2 that is absent in other known SH2 domains.

reduced Csk L-SH2 = biological target: T1, reduced Csk L-SH2 (Homo sapiens, UniProt P41240); assay: Fluorescence titration of reduced Csk L-SH2 with Cbp peptide; assay type: binding; settings: 10-residue Cbp peptide, Csk SH2, redox form not given
T1 construct: made in house
T1 sequence (P41240 73-178): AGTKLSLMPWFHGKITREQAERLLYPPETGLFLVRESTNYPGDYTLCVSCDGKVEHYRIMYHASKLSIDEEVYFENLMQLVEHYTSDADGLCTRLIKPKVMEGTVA
Method: Fluorescence titrations were performed at 25 °C in 3 mL of 50 mmol/L Tris-HCl (pH 7.5) using excitation and emission wavelengths of 288 nm and 320 nm, respectively. The 10-residue synthetic phosphopeptide corresponding to the specific SH2-binding site in Cbp was titrated with the L-SH2 sample. The typically adopted protein concentration is 5 μmol/L. For the denaturation experiments, ultrapure guanidine hydrochloride (Sigma S0933) was used. Proteins were exposed to guanidine hydrochloride concentrations ranging from 0 to 6 mol/L at 0.1–0.2 mol/L steps. The concentrations of guanidine hydrochloride of the solutions were determined by measuring the index of refraction and by using the following equation: d/d 0 = 1 + 0.2710 W + 0.0330 W ^2 (Tanford et al. [1966]), where W is the weight fraction of guanidine hydrochloride in the solution, d is the density of the solution, and d 0 is the density of water. Reversibility of the guanidine hydrochloride-induced unfolding reaction and the time necessary to re-establish equilibrium were determined by diluting a concentrated protein solution containing 6 mol/L guanidine hydrochloride into the buffer and by monitoring the fluorescence spectrum of the protein as a function of time. […] F unf values were calculated from the linear extrapolation of the pre- and post-unfolding baselines. […]

## O[C@@H](CS)[C@@H](O)CS [DTT, reference compound]
Csk L-SH2 disulfide bond
  time sufficient to reduce the SH2 domain: ≤ 10 h
full-length Csk
  activation of Csk: mildly activated

## CC[C@H](C)[C@H](N)C(=O)N[C@@H](CO)C(=O)N[C@@H](C)C(=O)N[C@@H](CCSC)C(=O)N[C@@H](Cc1ccc(OP(=O)(O)O)cc1)C(=O)N[C@@H](CO)C(=O)N[C@@H](CO)C(=O)N[C@H](C(=O)N[C@@H](CC(N)=O)C(=O)N[C@@H](CCCCN)C(=O)O)C(C)C [Cbp peptide] (H-ISAM[pY]SSVNK-OH)
Reduced Csk L-SH2
  affinity of Cbp peptide for Csk SH2 (in words): affinity at the µmol/L level

— publication PMC5071372, “Combining biophysical methods to analyze the disulfide bond in SH2 domain of C-terminal Src kinase” (Biophysics Reports, 2016)
